Laboratory results: patent US20250381274A1 (priority 2022, published 2025)
Entries after “also recorded” stand apart in the source; their conditions may differ.

Key:
cornea = experiment: Corneal topography (EyeSys), effective refractive power of ex vivo eyes crosslinked under coverslip loading; set-up: species or system rabbit; settings: for immediate diopter drop (words) / sustained diopter drop (words): 20% ribose 1 hr + UVA 365 nm lamp up to 3 hrs; for immediate diopter drop (words): coverslip (Hypothesis 2B / Group3); for sustained diopter drop (words): coverslip, final time point 8-10 hours; for immediate diopter drop (decrease in effective refractive power): immediately after irradiation
Excerpt: • 5 additional rabbits (Paired treated and control for OS/OD) • Sample preparation for ex vivo EyeSys topography: • connected to IV system (˜15 mm H2O) • Epithelium removed • CxL during mechanical deformation introduced by the coverslip • Point1: 1 hr after IV stabilization • Point2: after applying 20% (1.7M) Ribose, then 20% Dextran • Point3: after flattening/treatment (˜2 hrs) • (flattened 8-10 mm) • Point4: ˜1 hr after point3 • Point5: last point (might need trypan blue on top) • Laser Treatments: • Fidelity II, 1069 nm, 39fs, 450 mW • Focusing: no (deliberate) spark around touching the tissue • ZEISS 40X, NA=0.1463 • Z: increments 20 μm, 5 layers (several intervals) • 1 stlayer 15 μm below surface of focus sparking • XY: 10 μm zigzag grid, 3 mm radius circle • Motor speed 2.6 mm/s, full circle treatments: ˜25*5 mins • Representative OCT and visual changes are shown in appended FIGS. 1-25.
• 3 additional rabbits (Paired treated and control for OS/OD) • connected to IV system, stabilize for ˜1 hr • Trypan Blue inside the anterior chamber beneath cornea • CxL during mechanical deformation introduced by the coverslip • (˜40%-60% flattened by coverslip from the total diameter) • Treatment Protocol-1 hr submerged in 20% w/v Ribose in 20% Dextran • up to 3 hrs of UVA lamp (visible flattening as an indicator for duration)
Corneal Topography: For Group3 eyes, using an EyeSys Vista handheld topographer, the effective refractive power (Eff.Rp) was collected at multiple time points in a 10-hour period after eye harvest. The immediate diopter drop was defined as the difference between the initial baseline Eff.Rp and the Eff.Rp immediately after CXL. The sustained diopter drop was defined as the difference between the initial baseline Eff.Rp and the final Eff.Rp. Statistical Analysis: One-tailed paired t-tests were used for statistical analysis of Eff.Rp (Group3); two-tailed paired t-tests were used for biomechanical comparison (Group1 and 2). A p-value smaller than 0.05 was considered statistically significant.
Corneal Topography and OCT: The EyeSys topography effective refractive power (Eff.Rp) and OCT images were collected at multiple time points in a 10-hour period after eye harvest. Diopter drop after CxL was calculated and compared relative to the baseline Eff.Rp.
In Group2 (n=15 rabbits), to assess corneal flattening, 24 intact eyeballs (12 rabbits) were enucleated and placed into a custom-build holder such that one eye was subject to ROS-Glycation-CXL, and the other served as a paired control. After 1 hr incubation in 20% ribose PBS, all apical eyeballs were pressed with a coverslip until the contact between the cornea and the coverslip reached approximately 3 mm in diameter until the treatment finished. Group 2A's (n=6 pairs) treated eyes were exposed to 1.5 hours of UVA lamp irradiation, whereas Group 2 B's (n=6 pairs) treated eyes were exposed to 3 hours of UVA lamp irradiation. Intraocular pressure was kept at 18-20 mm H2O through an IV system with needles connecting at the posterior side of the eyeball. In order to investigate the mechanical difference between the 1.5 hrs and 3 hrs irradiation groups, Group 2C's (n=3 pairs) corneas went through similar preparations as Group 1 corneas did such that the two treatments with different irradiation times were applied to the pair of eyes from the same animal.
Effective refractive power (Eff. RP) was measured using a handheld topographer (EyeSys Vista, Teas, USA) for Group 2A and 2B eyes. The first point measured at 0.5-1 hour represents the baseline initial refractive power after stabilization at the controlled intraocular pressure before any alterations. The second point measured at 2 hours represents the refractive power after the ribose solution application. The third point at 3.5 hours for Group 2A or 5 hours for Group 2B represents refractive power after ROS-Glycation-CXL or loading for control eyes. […]

corneal tissues = experiment: Multiphoton/confocal imaging: autofluorescence and second harmonic generation signal; set-up: species or system rabbit; settings: anterior 100 μm
Excerpt: • The grey value of the top 100 μm (11 Z-stacks) of the cornea button was summed; • The average of the grey value summations are presented in appended FIGS. 1-25. • […] • The average of the grey value summations and Representative images at ˜600*600*100 μm in x, y, z are presented in appended FIGS. 1-25. The autofluorescence and second harmonic generation (SHG) signals of the corneal tissues in Group A were investigated to reveal the presence of CxLs and structural changes in collagenous ECM after hydration equilibrium in PBS on the same night of individual treatment days. Imaging was performed with a Nikon TI Eclipse inverted microscope using a Ti: Sapphire laser Chameleon Ultra II at 860 nm as the light source and a Nikon Apo LWD 20× objective for focusing. The emission filter was set at the FITC channel (475-650 nm, peak 525 nm) for autofluorescence signal collection and at the DAPI channel (400-600 nm, peak at 457 nm) for SHG signal collection. The XY scanning area for each sample was 635 μm by 635 μm, and Z scanning was 100 μm deep with 10 μm increments (stack of 11 images per sample). The summation of the average grey value processed in Image J at each layer was used as the representative signal strength for each sample.

[1] = 20% ribose + 1069 nm femtosecond laser 450 mW, coverslip deformation (Hypothesis 2A)
[2] = ribose + 365 nm UVA lamp, listed as Ribose
[3] = ribose + 400 nm femtosecond laser
[4] = ribose + 1069 nm femtosecond laser
[5] = ribose + 1069 nm femtosecond laser, listed as Ribose

**Q.** With `O=C[C@H](O)[C@H](O)[C@H](O)CO` [ribose] as the compound, how does the “immediate diopter drop (words)” value (cornea) read?
**A.** Its value is “significant Eff.RP diopter drop”.

**Q.** And the “immediate diopter drop (words)” value (cornea; listed as Ribose)?
**A.** Its value is “diopter drop immediately after treatment”.

**Q.** What about the “sustained diopter drop (words)” value (cornea) of the same compound?
**A.** The value was “statistically significant sustained Eff.RP diopter drop; also recorded: stably sustained”.

**Q.** What about the “sustained diopter drop (words)” value (cornea; listed as Ribose) of the same compound?
**A.** Its value is “persistent at the 8-10 hours time point”.

**Q.** What about the “immediate diopter change” value (cornea; [1]) of the same compound?
**A.** The value was “diopter drop immediately after treatment”.

**Q.** And the “persistence of diopter change” value (cornea; [1])?
**A.** Its value is “not persistent and gradually recovered to the baseline”.

**Q.** What about the “immediate diopter drop (decrease in effective refractive power)” value (cornea; Group 2A: 20% ribose 1 hr, 1.5 hr 365 nm UVA lamp under coverslip flattening) of the same compound?
**A.** Its value is 5 diopters.

**Q.** And the “sustained diopter drop (decrease in effective refractive power)” value (cornea; Group 2A: 1.5 hr UVA treatment, 10 hr time point)?
**A.** The value was 2.5 diopters.

**Q.** And the “immediate diopter drop (decrease in effective refractive power)” value (cornea; Group 2B: 20% ribose 1 hr, 3 hr 365 nm UVA lamp under coverslip flattening)?
**A.** The value was 10 diopters.

**Q.** What about the “refractive power drop, crosslinked vs control pairs, immediate and sustained” value (cornea; Groups 2A and 2B: ribose + 1.5 hr or 3 hr UVA lamp with coverslip loading) of the same compound?
**A.** The value was “sustained drop of refractive power; also recorded: Significant immediate and sustained refractive power drop differences”.

**Q.** And the “autofluorescence signal intensity change vs paired control (words)” value (“autofluorescence signal intensity change” below) (corneal tissues; ribose + 365 nm UVA lamp)?
**A.** The value was “increased significantly; also recorded: slightly increased; also recorded: Statistical significance”.

**Q.** And the “second harmonic generation signal intensity change vs paired control (words)” value (corneal tissues; ribose + 365 nm UVA lamp)?
**A.** The value was “decreased significantly; also recorded: statistically significant decreases; also recorded: Statistical significance”.

**Q.** What about the “autofluorescence signal intensity change” value (corneal tissues; [2]) of the same compound?
**A.** The value was “increased”.

**Q.** And the “second harmonic generation signal intensity change vs paired control (words)” value (corneal tissues; [2])?
**A.** The value was “decreased”.

**Q.** And the “autofluorescence signal intensity change” value (corneal tissues; [3])?
**A.** The value was “increased significantly; also recorded: slightly increased; also recorded: Statistical significance”.

**Q.** And the “second harmonic generation signal intensity change vs paired control (words)” value (corneal tissues; [3])?
**A.** Its value is “decreased significantly; also recorded: statistically significant decreases; also recorded: Statistical significance”.

**Q.** What about the “autofluorescence signal intensity change” value (corneal tissues; [4]) of the same compound?
**A.** The value was “increased significantly; also recorded: slightly increased; also recorded: Statistical significance”.

**Q.** What about the “second harmonic generation signal intensity change vs paired control (words)” value (corneal tissues; [4]) of the same compound?
**A.** The value was “decreased significantly; also recorded: statistically significant decreases; also recorded: Statistical significance”.

**Q.** And the “autofluorescence signal intensity change” value (corneal tissues; [5])?
**A.** Its value is “increased”.

**Q.** And the “second harmonic generation signal intensity change vs paired control (words)” value (corneal tissues; [5])?
**A.** Its value is “decreased”.
